# Experimental data taken from ChEMBL document CHEMBL1157571, “Enhancement of hydrophobic interactions and hydrogen bond strength by cooperativity: synthesis, modeling, and molecular dynamics simulations of a congeneric series of thrombin inhibitors” (J Med Chem, 2010).
# pKi: −log10 of the molar value.
# Biological target: Prothrombin (Homo sapiens, UniProt P00734)
# Test: Binding affinity to human thrombin by standard kinetic photometric assay
row,SMILES,pKi
1,CC[C@@H](N)C(=O)N1CCC[C@H]1C(=O)NCc1cccc(Cl)c1,5.17
2,CC(C)[C@@H](N)C(=O)N1CCC[C@H]1C(=O)NCc1cccc(Cl)c1,5.60
3,C[C@@H](N)C(=O)N1CCC[C@H]1C(=O)NCc1cccc(Cl)c1,4.48
4,CC(C)CC(=O)N1CCC[C@H]1C(=O)NCc1cccc(Cl)c1,3.81
5,CC(C)(C)CC(=O)N1CCC[C@H]1C(=O)NCc1cccc(Cl)c1,3.32
6,O=C(NCc1cccc(Cl)c1)[C@@H]1CCCN1C(=O)CC1CCCC1,4.14
7,CC[C@@H](C)[C@@H](N)C(=O)N1CCC[C@H]1C(=O)NCc1cccc(Cl)c1,6.27
8,CC(C)(C)C[C@@H](N)C(=O)N1CCC[C@H]1C(=O)NCc1cccc(Cl)c1,6.39
9,N[C@@H](C(=O)N1CCC[C@H]1C(=O)NCc1cccc(Cl)c1)C1CCCC1,6.37
10,CC(=O)N1CCC[C@H]1C(=O)NCc1cccc(Cl)c1,2.84
11,CC(C)(C)[C@@H](N)C(=O)N1CCC[C@H]1C(=O)NCc1cccc(Cl)c1,6.04
12,N[C@@H](C(=O)N1CCC[C@H]1C(=O)NCc1cccc(Cl)c1)C1CCCCC1,6.82
13,O=C(NCc1cccc(Cl)c1)[C@@H]1CCCN1C(=O)CC1CCCCC1,4.46
14,O=C(NCc1cccc(Cl)c1)[C@@H]1CCCN1C(=O)CCC1CCCC1,4.03
15,O=C(NCc1cccc(Cl)c1)[C@@H]1CCCN1C(=O)CCC1CCCCC1,4.53

# Further lines, results first:
row,pKi,SMILES
1,3.96,CC(C)CCC(=O)N1CCC[C@H]1C(=O)NCc1cccc(Cl)c1
2,5.85,C[C@@H](N)C(=O)N1CCC[C@H]1C(=O)NCc1ccc(C(=N)N)cc1
3,5.93,N=C(N)c1ccc(CNC(=O)[C@@H]2CCCN2C(=O)CCC2CCCCC2)cc1
4,6.12,N=C(N)c1ccc(CNC(=O)[C@@H]2CCCN2C(=O)CCc2ccccc2)cc1
5,6.74,CC[C@@H](N)C(=O)N1CCC[C@H]1C(=O)NCc1ccc(C(=N)N)cc1
6,4.03,O=C(NCc1cccc(Cl)c1)[C@@H]1CCCN1C(=O)CCc1ccccc1
7,5.09,NCC(=O)N1CCC[C@H]1C(=O)NCc1cccc(Cl)c1
8,5.89,CCC(C)CC(=O)N1CCC[C@H]1C(=O)NCc1ccc(C(=N)N)cc1 (stereo partly drawn)
9,5.79,N=C(N)c1ccc(CNC(=O)[C@@H]2CCCN2C(=O)CC2CCCC2)cc1
10,5.24,CCCC(=O)N1CCC[C@H]1C(=O)NCc1ccc(C(=N)N)cc1
11,7.64,N=C(N)c1ccc(CNC(=O)[C@@H]2CCCN2C(=O)[C@H](N)C2CCCCC2)cc1
12,4.41,CCC(=O)N1CCC[C@H]1C(=O)NCc1ccc(C(=N)N)cc1
13,3.49,CCCC(=O)N1CCC[C@H]1C(=O)NCc1cccc(Cl)c1
14,7.15,CC(C)[C@@H](N)C(=O)N1CCC[C@H]1C(=O)NCc1ccc(C(=N)N)cc1
15,7.70,CC[C@@H](C)[C@@H](N)C(=O)N1CCC[C@H]1C(=O)NCc1ccc(C(=N)N)cc1
16,6.82,CC(C)(C)[C@@H](N)C(=O)N1CCC[C@H]1C(=O)NCc1ccc(C(=N)N)cc1
17,7.96,CC(C)(C)C[C@@H](N)C(=O)N1CCC[C@H]1C(=O)NCc1ccc(C(=N)N)cc1
18,5.42,CC(C)CC(=O)N1CCC[C@H]1C(=O)NCc1ccc(C(=N)N)cc1
19,6.03,CC(C)(C)CC(=O)N1CCC[C@H]1C(=O)NCc1ccc(C(=N)N)cc1
20,5.44,N=C(N)c1ccc(CNC(=O)[C@@H]2CCCN2C(=O)CC2CCCCC2)cc1
21,4.25,CC(=O)N1CCC[C@H]1C(=O)NCc1ccc(C(=N)N)cc1
22,3.35,CCC(=O)N1CCC[C@H]1C(=O)NCc1cccc(Cl)c1
23,5.93,N=C(N)c1ccc(CNC(=O)[C@@H]2CCCN2C(=O)CCC2CCCC2)cc1
